Read-outs that look alike come from different tables or passages of the source.
Tests used:
[1] = system: TopBP1 checkpoint activation (Chk1); assay: HU-induced Chk1 activation; assay type: cell-based
Method: (§1) MDA-MB468 cells were lysed with TNN buffer (Liu et al. 2003). An aliquot of cell lysates was lysed with SDS lysis buffer and the rest of cell lysates were incubated with appropriate antibodies or beads at 4° C. for 3-12 h. Anti-FLAG beads (Sigma) were washed three times with TNN buffer. Immunoprecipitates were fractionated by SDS-PAGE and electro-transferred to Immobilon-P membrane (Millipore). Equal amount of protein loading was validated with Ponceau-S staining. The specific signals were detected by incubating with appropriate antibody. All primary antibodies were used at 1:1000 dilution and horseradish peroxidase (HRP)-conjugated secondary antibodies were used at 1:5000 dilution for immunoblotting. E2F1 (C-20 and KH-95), p53 (FL393), p63 (4A4 and H-129), p73 (H-79), p21 (C-19), Bax (N-20), GST (B-14), c-Myc (A14), Miz1 (H-190), Chk1 (G4), Actin (C-2) and GAPDH (6C5) antibodies were purchased from Santa Cruz. TopBP1 (mouse monoclonal) and Aid antibodies were purchased from BD Transduction Laboratories. TopBP1 (BL893, Rabbit polyclonal) antibody was purchased from Bethyl. Mouse monoclonal anti-phospho-γH2AX was purchased from Millipore. Phospho-Chk1 (Ser345) antibody was purchased from Cell signaling. FLAG (F7425) antibody was purchased from Sigma. Mouse monoclonal anti-p73 (IMG-246) was purchased from IMGENEX.

[2] = system: SKOV-3 ovarian cancer cells; assay: MTS assay, SKOV-3; assay type: cell-based, human
Method: (§2) Then 50 μl of MTS reagent (CellTiter 96® AQueous One Solution Cell Proliferation Assay, Promega) was added to each well, covered from light and incubated for 1 h at 37.0 incubator to develop purple color. The samples were measured at 490 nm in a plate reader (BioTek Synergy HT) against a blank 48-well plate. Each assay was done in triplicate.

[3] = system: primary leukemia cells from a patient with T cell acute lymphoblastic leukemia; assay: Caspase 3/7 activation assay, primary leukemia cells; assay type: cell-based; conditions: 2.5 μM, 7 hours
Method: (§3) The apoptosis was measured by Caspase-Glo® 3/7 assay (Promega) following the manufacturer's protocol. The cells were plated in 6-well tissue culture dish (10^4 cells/well) (BD Falcon) in respective media. […] The blank reactions were prepared per direction. Equal volume of Caspase-Glo® 3/7 reagents were applied to each well. A luminometer (Sirius) was used to quantitate luminescence.

MDA-MB468 = assay: DNA damage signals (pS15-p53, γ-H2AX) in MDA-MB468; assay type: cell-based, human; conditions: up to 10 μM
Method: as §1

[4] = molecular target: T1, TopBP1/E2F1 interaction in HEK293T cells (Homo sapiens, UniProt Q92547); assay: Co-immunoprecipitation of overexpressed E2F1 and TopBP1; assay type: cell-based; conditions: 5 h
T1 construct: expressed in transfected cells
T1 sequence (Q92547 whole entry): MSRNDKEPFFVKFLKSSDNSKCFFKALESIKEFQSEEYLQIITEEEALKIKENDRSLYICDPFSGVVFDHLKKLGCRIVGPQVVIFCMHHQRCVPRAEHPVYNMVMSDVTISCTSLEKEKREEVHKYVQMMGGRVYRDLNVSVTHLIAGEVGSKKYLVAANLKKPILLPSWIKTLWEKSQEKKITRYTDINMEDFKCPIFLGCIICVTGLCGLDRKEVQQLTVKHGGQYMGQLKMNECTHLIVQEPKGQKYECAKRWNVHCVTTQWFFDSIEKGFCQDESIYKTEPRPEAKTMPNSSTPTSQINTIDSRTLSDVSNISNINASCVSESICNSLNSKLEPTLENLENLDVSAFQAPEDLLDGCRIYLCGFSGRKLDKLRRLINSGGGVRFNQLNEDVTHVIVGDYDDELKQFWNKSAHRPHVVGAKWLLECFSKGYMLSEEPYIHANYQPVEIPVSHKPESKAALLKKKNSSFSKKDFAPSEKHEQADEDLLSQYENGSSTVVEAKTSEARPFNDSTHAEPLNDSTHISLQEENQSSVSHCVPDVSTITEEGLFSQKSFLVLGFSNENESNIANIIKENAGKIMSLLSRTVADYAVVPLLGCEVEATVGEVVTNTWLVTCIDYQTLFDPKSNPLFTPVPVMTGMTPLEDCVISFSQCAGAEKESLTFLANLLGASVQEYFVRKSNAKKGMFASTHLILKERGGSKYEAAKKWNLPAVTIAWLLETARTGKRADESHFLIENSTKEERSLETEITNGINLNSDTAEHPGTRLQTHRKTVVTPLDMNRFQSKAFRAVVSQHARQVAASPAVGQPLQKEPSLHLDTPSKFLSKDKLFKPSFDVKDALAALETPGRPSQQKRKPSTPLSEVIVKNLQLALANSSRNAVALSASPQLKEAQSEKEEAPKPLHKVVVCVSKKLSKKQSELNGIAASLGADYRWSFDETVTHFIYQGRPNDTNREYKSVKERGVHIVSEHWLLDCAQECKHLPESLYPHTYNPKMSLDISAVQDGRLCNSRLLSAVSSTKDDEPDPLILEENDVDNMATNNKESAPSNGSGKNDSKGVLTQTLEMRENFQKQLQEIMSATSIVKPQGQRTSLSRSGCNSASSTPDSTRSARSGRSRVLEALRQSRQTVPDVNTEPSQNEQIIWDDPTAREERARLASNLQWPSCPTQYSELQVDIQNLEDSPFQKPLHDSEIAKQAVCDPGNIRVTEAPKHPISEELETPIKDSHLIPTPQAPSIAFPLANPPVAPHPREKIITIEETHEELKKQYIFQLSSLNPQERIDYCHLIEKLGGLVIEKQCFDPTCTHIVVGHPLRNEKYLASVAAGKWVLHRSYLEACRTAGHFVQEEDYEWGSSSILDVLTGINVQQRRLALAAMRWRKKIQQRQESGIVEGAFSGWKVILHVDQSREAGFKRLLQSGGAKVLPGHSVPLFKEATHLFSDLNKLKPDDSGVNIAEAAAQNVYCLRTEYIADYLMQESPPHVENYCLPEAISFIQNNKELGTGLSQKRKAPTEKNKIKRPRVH
Method: as §1

[5] = molecular target: T2, TopBP1/mutp53 (R249S) interaction (Homo sapiens, UniProt Q92547); assay: Co-immunoprecipitation in BT549 cells, TopBP1/mutp53; assay type: cell-based; conditions: 2.5 μM
T2 construct: endogenous in cells; host or cells: BT549
T2 sequence (Q92547 whole entry, stated change not applied): as the sequence (Q92547 whole entry) above

[6] = system: E2F sites of the p68 subunit of DNA polymerase α promoter; assay: pKL12 / pKL12-E2FAB promoter construct assay; assay type: cell-based; conditions: wild-type versus mutated E2F sites
NCI-H23 = conditions: NCI-DTP database; cited from earlier work
NCI-60 cancer cell lines = conditions: NCI-DTP data, cited from earlier work
[7] = system: mutp53(R249S)/p73 interaction; assay: Anti-p73 immunoprecipitation in BT549 cells; assay type: cell-based, human; conditions: 2.5 μM, 5 h
Method: as §1

A549 = conditions: NCI-DTP database; cited from earlier work
[8] = system: p53 targets p21 and Bax in HCT116 cells; assay: Induction of p21 and Bax in isogenic p53+/+ and p53−/− HCT116 cells; assay type: cell-based; conditions: p53+/+ versus p53−/− HCT116
TopBP1/E2F1 interaction = molecular target: T3, TopBP1/E2F1 interaction (Homo sapiens, UniProt Q92547); assay: Co-immunoprecipitation in BT549 cells, TopBP1/E2F1; assay type: cell-based; conditions: 2.5 μM, 3 h
T3 construct: endogenous in cells; host or cells: MDA-MB468
T3 sequence (Q92547 whole entry): as above

SKOV-3 cells = assay: Caspase-Glo 3/7 assay, SKOV-3 transfected with mutp53(R273H); assay type: cell-based, human; conditions: cisplatin 20 μM with Calcein AM 5 μM, 20 h
Method: as §3

[9] = system: E2F1, p63/p73 and NF-Y target genes; assay: Real-time RT-PCR of E2F1, p63/p73 and NF-Y target genes in MDA-MB468 cells; assay type: cell-based, human; conditions: 2.5 μM, 5 h
Method: RNA was isolated using TRIzol method (Invitrogen). Quantitative reverse transcription-PCR (RT-PCR) was performed in triplicate using the forward and reverse primers ((Chowdhury et al. 2014) Supplementary FIG. 18) on an MX3005P thermal cycler using SYBR green dye method to observe the progress of the reactions with ROX dye, which was added as reference. GAPDH was run in parallel with target genes.

[10] = system: RPMI 8226 myeloma cell line; assay: MTS assay, RPMI 8226; assay type: cell-based, human; conditions: Calcein AM 2.5 μM, 12 h, mutp53(E285K)
Method: as §2

MCF7 cells = assay: MTS assay, MCF7; assay type: cell-based, human; conditions: increasing concentrations, 5 h, versus MCF10A
Method: as §2

[11] = system: 4T1 mouse breast tumor cells; assay: Apoptosis in mouse tumor cells; assay type: cell-based
Method: as §3

mice = conditions: cited from earlier work
mutp53/p73 interaction = assay: Anti-p73 immunoprecipitation in MDA-MB468 cells; assay type: cell-based, human; conditions: 2.5 μM, 5 h
Method: as §1

Hs-578T = conditions: NCI-DTP database; cited from earlier work
NCI-H460 = conditions: NCI-DTP database; cited from earlier work

In the case of `CC(=O)OCOC(=O)CN(CC(=O)OCOC(C)=O)Cc1cc2c(cc1OC(C)=O)Oc1cc(OC(C)=O)c(CN(CC(=O)OCOC(C)=O)CC(=O)OCOC(C)=O)cc1C21OC(=O)c2ccccc21` [Calcein AM, Calcein AM (acetoxymethyl ester)], the “HU-induced Chk1 activation” value [1] is reported as “did not block HU-induced Chk1 activation”, the “proliferation (MTS)” value ([2]; Calcein AM 5 μM in combination with cisplatin 20 μM, 20 h) is reported as “inhibited the proliferation” and the “proliferation (MTS)” value ([2]; Calcein AM alone, overnight) is reported as “inhibited the proliferation”. The “cell killing (caspase 3/7 activation)” value [3] was “active in killing”, the “DNA damage (pS15-p53 or γ-H2AX signal)” value (MDA-MB468) was “did not see evidence of DNA damage” and the “interaction between overexpressed E2F1 and TopBP1” value [4] was “inhibited the interaction between overexpressed E2F1 and TopBP1”. The “interaction between TopBP1 and mutp53” value [5] was “inhibited”, the “induction of promoter activity on pKL12 and pKL12-E2FAB” value [6] was “could only induce the activity on pKL12, but not on pKL12-E2FAB” and the GI50 (NCI-H23) was under 1 µM. For the same molecule, the GI50 (NCI-60 cancer cell lines; read-out: average GI50 over all 60 cell lines) was 0.662 µM, the GI50 (NCI-60 cancer cell lines; read-out: highest GI50 of the 60 cell lines) was 11 µM and the GI50 (NCI-60 cancer cell lines; read-out: lowest GI50 of the 60 cell lines) was 0.01 µM. For the same molecule, the “binding of p73 to mutp53(R249S)” value [7] was “release of p73 from mutp53(R249S)”, the GI50 (A549) was under 1 µM and the “induction of p21 and Bax” value [8] was “observed on in p53^+/+, but not in p53^−/−”. The “interaction between TopBP1 and E2F1” value (TopBP1/E2F1 interaction) was “inhibited”, the “inhibition of cisplatin-induced apoptosis by overexpressed mutp53(R273H)” value (SKOV-3 cells) was “partially rescued” and the “E2F1 pro-apoptotic target genes (p73, Apaf1, caspase 3)” value [9] was “up-regulated”. The “NF-Y target genes (Cdk1, Cdc25C, Cyclin A2)” value [9] was “down-regulation”, the “p63/p73 target genes (Bax, Noxa, Hdm2)” value [9] was “up-regulation” and the “induction of E2F1, p63/p73 and NF-Y target gene expression” value ([9]; TopBP1-depleted cells) was “less significant”. For the same molecule, the “doxorubicin sensitivity (MTS)” value [10] was “sensitized cells to doxorubicin”, the “proliferation (MTS)” value (MCF7 cells) was “preferentially inhibited the proliferation” and the apoptosis [11] was “induced apoptosis”. The “oral LD50” value (mice; oral) was 17000 mg/kg, the “percutaneous LD50” value (mice; percutaneous) was 5000 mg/kg and the “binding of p73 to mutp53” value (mutp53/p73 interaction) was “release of p73 from mutp53”. For the same molecule, the GI50 (Hs-578T) was under 0.4 µM and the GI50 (NCI-H460) was under 1 µM.

From patent US9636323B2, “Method of treating cancer that overexpresses TopBP1” (Baylor College of Medicine, priority 2014, dated 2017)
